Patent publication US20230174507A1, “IMIDAZOLE 3-OXIDE DERIVATIVE BASED ACSS2 INHIBITORS AND METHODS OF USE THEREOF” (METABOMED LTD., priority 2020, published 2023)
pIC50: −log10 of the molar value.

Tests used:
human ACSS2 protein = biological target: T1, human ACSS2 protein (Homo sapiens, UniProt Q9NR19); test: ACSS2 cell-free activity assay (pyrophosphatase-coupled, Biomol green); details: 10 nM human ACSS2, 90 minutes at 37 C, absorbance at 620 nm; read-out: ACSS2 Biochemical IC50
T1 construct: purchased OriGene Technologies, Inc
How it was run: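 10 nM human ACSS2 incubated 90 min at 37 C with compound, 300 μM ATP, 10 μM CoA, 5 mM NaAc in pH 7.5 Hepes buffer with 0.5 U/ml pyrophosphatase. Released phosphate detected with Biomol Green at 620 nm; IC50 by non-linear regression constrained to 0% and 100%.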

[1] = biological target: T2, ACSS2 in MDA-MB-468 cells (Homo sapiens, UniProt Q9NR19); test: Cellular fatty-acid IC50: 13C-acetate incorporation into fatty acids (palmitate), LC-MS; assay type: cell-based; details: hypoxic conditions (1% O2), 75% charcoal stripped serum, 5 hours, 13C-acetate into palmitate, read-out: Cellular Fatty-acid IC50 High Serum MDA468
T2 construct: endogenous in cells; host or cells: MDA-MB-468 cells, hypoxia (1% O2)
Method: Cellular Fatty-Acid IC50 Determination:
The cellular activity of ACSS2 was measured in MDA-MB-468 cells under hypoxic conditions by tracing the incorporation of labelled carbons from ^13C-acetate into newly synthesized fatty acids. The assay was performed using 75% charcoal stripped serum (high serum conditions).
MDA-MB-468 cells were seeded in 12-well plates (0.35×10^6 cells per well) in plating medium (Dulbecco's Modified Eagle Medium containing 25 mM D-glucose, 1 mM sodium pyruvate, 10% v/v fetal bovine serum, and 2 mM glutamine) and incubated for 24 hours under hypoxic conditions (1% O2).
The next day, tracing medium containing DMEM (01-057-1A) containing 75% charcoal stripped serum (Biological industries 04-201-1A), 3.5 μg/mL Biotin (Sigma-Aldrich B4639), 1 mM Pyruvate, 5.5 mM Glucose, 0.65 mM Glutamine and 0.5 mM ^13C-Acetate (Sigma-Aldrich #282014) with serial dilutions of the compounds in the range of 0.000512-1000 nM were prepared. The plating medium was replaced with 1 mL tracing medium plus compounds and the cells were incubated for 5 hours under hypoxic conditions (1% O2). Plating medium in control wells (without cells or without compounds) was replaced with 1 mL tracing medium containing 0.01% v/v DMSO.
The level of ^13C-acetate incorporation into fatty acids (palmitate) was measured by LC-MS analysis and IC50 as described below:
Sample Preparation for LC-MS
• a) Cells were washed twice with cold phosphate buffered saline (PBS), scraped into 0.5 mL EDTA pH 8.0, and transferred into 1.1 mL V-shaped HPLC glass tubes. • b) The cell suspensions were centrifuged for 5 minutes at 400×g, 4° C. and the supernatants were removed. • c) Cell pellets were frozen at −80° C.
• d) Cell pellets were resuspended in 0.2 mL of 80% v/v ethanol in water containing 0.02 M NaOH in 1.1 ml glass (v-bottom) HPLC vials. • e) The vials were closed tight and incubated at 66° C. for 60 minutes. • f) Acetonitrile containing 2% v/v formic acid (150 μL) was added to each vial and the mixtures were transferred to Eppendorf tubes for centrifugation at 17 000×g for 20 minutes. • g) Supernatants were transferred to LC-MS vials.
The relative palmitate concentration was measured by LC-MS in reconstructed selected ion monitoring (RSIM) mode and negative ion mode. Samples were analyzed on a Phenomenex Kinetex 2.6 μm XB-C18 150×2.1 mm column at 45° C. (0.4 mL/minute flow rate) using: • a) A gradient from 15% A/85% C to 100% C for 0 to 2 minutes (A: water containing 5% v/v acetonitrile, 10 mM ammonium acetate, and 10 mM acetic acid; C: a mixture of 50% v/v acetonitrile and 50% v/v methanol). • b) Isocratic flow (100% C) for 2 to 5 minutes. • c) Equilibration in isocratic conditions (15% A/85% C) for 5 to 8 minutes.
Palmitate was eluted at approximately 3.4 minutes.
The percent inhibition was calculated relative to the sample without compound and after background deduction. IC50 values were calculated using non-linear regression curve fit analysis with 0% and 100% constraints (CDD Vault, Collaborative Drug Discovery, Inc. or GraphPad Prism).
The inhibitory activities of each compound against ACSS2 in MDA-MB-468 cells under high serum conditions, as determined by ^13C-acetate incorporation into fatty acids (palmitate), are presented in Table 2.

human ACSS1 protein = biological target: T3, human ACSS1 protein (Homo sapiens, UniProt Q9NUB1); test: ACSS1 cell-free activity assay (pyrophosphatase-coupled, Biomol green); assay type: biochemical; details: 5 nM human ACSS1, 30 minutes at room temperature, absorbance at 620 nm
T3 construct: purchased MyBioSource
T3 sequence (Q9NUB1 38-689): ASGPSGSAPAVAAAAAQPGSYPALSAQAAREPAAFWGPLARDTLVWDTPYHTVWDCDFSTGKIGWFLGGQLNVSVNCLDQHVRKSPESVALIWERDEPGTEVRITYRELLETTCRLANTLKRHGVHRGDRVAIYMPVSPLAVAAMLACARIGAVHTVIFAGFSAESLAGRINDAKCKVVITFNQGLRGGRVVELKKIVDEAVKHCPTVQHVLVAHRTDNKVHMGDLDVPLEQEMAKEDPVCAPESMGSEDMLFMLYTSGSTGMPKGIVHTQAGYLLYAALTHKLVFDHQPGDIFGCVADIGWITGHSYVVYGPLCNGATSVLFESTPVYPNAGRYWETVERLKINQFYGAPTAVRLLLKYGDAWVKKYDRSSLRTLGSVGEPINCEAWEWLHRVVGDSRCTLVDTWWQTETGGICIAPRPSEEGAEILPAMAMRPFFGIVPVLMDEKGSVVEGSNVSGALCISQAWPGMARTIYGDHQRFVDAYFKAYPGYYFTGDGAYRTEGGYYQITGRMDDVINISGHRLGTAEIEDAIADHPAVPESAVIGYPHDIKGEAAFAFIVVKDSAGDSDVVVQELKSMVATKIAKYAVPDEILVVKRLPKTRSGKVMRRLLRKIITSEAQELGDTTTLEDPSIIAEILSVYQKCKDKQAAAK
How it was run: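 5 nM human ACSS1 incubated 30 min at RT with compound in pH 7.5 Hepes buffer with 15 μM CoA, 5 mM acetate, 300 μM ATP, 2 mM MgCl2 and pyrophosphatase. Released phosphate detected with Biomol Green (30 min), absorbance 620 nm. IC50 from constrained non-linear regression.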

T1 sequence (Q9NR19 whole entry): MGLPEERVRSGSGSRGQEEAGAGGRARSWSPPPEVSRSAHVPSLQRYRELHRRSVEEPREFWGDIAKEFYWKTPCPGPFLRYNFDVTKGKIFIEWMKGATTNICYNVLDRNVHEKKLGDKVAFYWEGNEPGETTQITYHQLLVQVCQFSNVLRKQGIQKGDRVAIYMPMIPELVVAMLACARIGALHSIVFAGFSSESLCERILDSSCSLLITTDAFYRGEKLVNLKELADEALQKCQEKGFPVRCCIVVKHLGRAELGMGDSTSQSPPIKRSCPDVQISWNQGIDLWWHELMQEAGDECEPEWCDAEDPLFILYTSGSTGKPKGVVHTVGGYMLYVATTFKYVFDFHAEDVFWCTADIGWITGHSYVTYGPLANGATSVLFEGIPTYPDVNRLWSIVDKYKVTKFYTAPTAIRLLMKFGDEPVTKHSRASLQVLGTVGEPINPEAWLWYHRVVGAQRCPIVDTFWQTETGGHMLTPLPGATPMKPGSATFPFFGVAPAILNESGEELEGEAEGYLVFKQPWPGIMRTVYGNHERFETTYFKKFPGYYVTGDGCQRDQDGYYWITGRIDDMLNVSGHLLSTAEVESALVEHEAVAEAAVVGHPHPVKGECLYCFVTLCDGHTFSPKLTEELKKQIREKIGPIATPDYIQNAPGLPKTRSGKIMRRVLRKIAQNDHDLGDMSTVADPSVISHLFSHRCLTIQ
T2 sequence (Q9NR19 whole entry): as above

| Compound | pIC50 (human ACSS2 protein) | pIC50 [1] | ACSS1 Biochemical IC50 (nM) (human ACSS1 protein) |
| --- | --- | --- | --- |
| Cc1cncc(C)c1-c1cc(-c2[nH]c(C)c(C(=O)Nc3cccc(C(F)(F)C4CC4)c3)[n+]2[O-])ccc1OC(F)F [Compound 115, 4-((3-(cyclopropyldifluoromethyl)phenyl)carbamoyl)-2-(4-(difluoromethoxy)-3-(3,5-dimethylpyridin-4-yl)phenyl)-5-methyl-1H-imidazole 3-oxide] | > 9.00 | > 7.70 | Inactive |
| CCC(F)(F)c1cccc(NC(=O)c2c(C)[nH]c(-c3cccc(-c4c(C)cnnc4C)c3)[n+]2[O-])c1 [Compound 116, 4-((3-(1,1-difluoropropyl)phenyl)carbamoyl)-2-(3-(3,5-dimethylpyridazin-4-yl)phenyl)-5-methyl-1H-imidazole 3-oxide] | > 9.00 | > 7.70 | Inactive |
| CCC(F)(F)c1cccc(NC(=O)c2c(C)[nH]c(-c3cc(-c4c(C)cccc4C)c(OC)cc3N)[n+]2[O-])c1 [Compound 124] | > 9.00 | < 7.30 | Inactive |
| CCC(F)(F)c1cccc(NC(=O)c2c(C)[nH]c(-c3ccc(OC)c(-c4c(Cl)cccc4Cl)c3)[n+]2[O-])c1 [Compound 126, 2-(2′,6′-dichloro-6-methoxy-[1,1′-biphenyl]-3-yl)-4-((3-(1,1-difluoropropyl)phenyl)carbamoyl)-5-methyl-1H-imidazole 3-oxide] | > 9.00 | 7.30 to 7.70 | Inactive |
| Cc1cccc(C)c1-c1cc(F)cc(-c2[nH]c(C)c(C(=O)Nc3cccc(C(F)(F)C4CC4)c3)[n+]2[O-])c1 [Compound 129, 4-((3-(cyclopropyldifluoromethyl)phenyl)carbamoyl)-2-(5-fluoro-2′,6′-dimethyl-[1,1′-biphenyl]-3-yl)-5-methyl-1H-imidazole 3-oxide] | > 9.00 | < 7.30 | Inactive |
| COc1cc(-c2c(C)cccc2C)cc(-c2[nH]c(C)c(C(=O)Nc3cccc(C(F)(F)C4CC4)c3)[n+]2[O-])c1 [Compound 131, 4-((3-(cyclopropyldifluoromethyl)phenyl)carbamoyl)-2-(5-methoxy-2′,6′-dimethyl-[1,1′-biphenyl]-3-yl)-5-methyl-1H-imidazole 3-oxide] | > 9.00 | 7.30 to 7.70 | Inactive |
| Cc1cccc(C)c1-c1cc(C#N)cc(-c2[nH]c(C)c(C(=O)Nc3cccc(C(F)(F)C4CC4)c3)[n+]2[O-])c1 [Compound 135, 2-(5-cyano-2′,6′-dimethyl-[1,1′-biphenyl]-3-yl)-4-((3-(cyclopropyldifluoromethyl)phenyl)carbamoyl)-5-methyl-1H-imidazole 3-oxide] | > 9.00 | 7.30 to 7.70 | Inactive |
| COc1cc(F)c(-c2[nH]c(C)c(C(=O)Nc3cccc(C(F)(F)C4CC4)c3)[n+]2[O-])cc1-c1c(C)cccc1C [Compound 137] | > 9.00 | < 7.30 | Inactive |
| CC(=O)c1cc(-c2c(C)cccc2C)cc(-c2[nH]c(C)c(C(=O)Nc3cccc(C(F)(F)C4CC4)c3)[n+]2[O-])c1 [Compound 142, 2-(5-acetyl-2′,6′-dimethyl-[1,1′-biphenyl]-3-yl)-4-((3-(cyclopropyldifluoromethyl)phenyl)carbamoyl)-5-methyl-1H-imidazole 3-oxide] | > 9.00 | < 7.30 | Inactive |
| Cc1cccc(C)c1-c1cc(-c2[nH]c(C)c(C(=O)Nc3cccc(C(F)(F)C4CC4)c3)[n+]2[O-])cc(C(C)O)c1 (stereo not drawn) [Compound 143, 4-((3-(cyclopropyldifluoromethyl)phenyl)carbamoyl)-2-(5-(1-hydroxyethyl)-2′,6′-dimethyl-[1,1′-biphenyl]-3-yl)-5-methyl-1H-imidazole 3-oxide] | > 9.00 | 7.30 to 7.70 | Inactive |

Results, then the compound that gave them:

| pIC50 (human ACSS2 protein) | pIC50 [1] | ACSS1 Biochemical IC50 (nM) (human ACSS1 protein) | Compound |
| --- | --- | --- | --- |
| > 9.00 | > 7.70 | Inactive | COc1ccc(-c2[nH]c(C)c(C(=O)Nc3cccc(C(=O)N(C)C)c3)[n+]2[O-])cc1-c1c(C)cccc1C [Compound 119, 4-((3-(dimethylcarbamoyl)phenyl)carbamoyl)-2-(6-methoxy-2′,6′-dimethyl-[1,1′-biphenyl]-3-yl)-5-methyl-1H-imidazole 3-oxide] |
| > 9.00 | > 7.70 | Inactive | COc1ccc(-c2[nH]c(C)c(C(=O)Nc3cccc(C(C)(F)F)c3)[n+]2[O-])cc1-c1c(C)cccc1C [Compound 120, 4-((3-(1,1-difluoroethyl)phenyl)carbamoyl)-2-(6-methoxy-2′,6′-dimethyl-[1,1′-biphenyl]-3-yl)-5-methyl-1H-imidazole 3-oxide] |
| > 9.00 | > 7.70 | Inactive | CCC(F)(F)c1cccc(NC(=O)c2c(C)[nH]c(-c3cc(-c4c(C)cccc4C)c(OC)cc3O)[n+]2[O-])c1 [Compound 123, 4-((3-(1,1-difluoropropyl)phenyl)carbamoyl)-2-(4-hydroxy-6-methoxy-2′,6′-dimethyl-[1,1′-biphenyl]-3-yl)-5-methyl-1H-imidazole 3-oxide] |
| > 9.00 | > 7.70 | Inactive | CCC(F)(F)c1cccc(NC(=O)c2c(C)[nH]c(-c3cc(-c4c(C)cccc4C)c(OC)cc3F)[n+]2[O-])c1 [Compound 125, 4-((3-(1,1-difluoropropyl)phenyl)carbamoyl)-2-(4-fluoro-6-methoxy-2′,6′-dimethyl-[1,1′-biphenyl]-3-yl)-5-methyl-1H-imidazole 3-oxide] |
| > 9.00 | > 7.70 | Inactive | CNC(=O)c1cccc(NC(=O)c2c(C)[nH]c(-c3ccc(OC)c(-c4c(C)cccc4C)c3)[n+]2[O-])c1 [Compound 146, 2-(6-methoxy-2′,6′-dimethyl-[1,1′-biphenyl]-3-yl)-5-methyl-4-((3-(methylcarbamoyl)phenyl)carbamoyl)-1H-imidazole 3-oxide] |
